Data as given in patent publication US20230271770A1, “Anti-Viral Pharmaceutical Formulations Administered Via Devices for Lung Targeted Delivery” (priority 2020, published 2023).

Set-up: species or system mice
Details: mouse, in vivo, 10 min
Description: Mice can breathe the aerosol of drug products. A breathing tank is used for mice to breathe the aerosol of the drug product, such as HCQ. The drug product is administered through the specially designed stainless steel breathing tank 1800, for example as shown in FIG. 18.
The exposure tank size is designed such that the total breathing volume of all eight mice during a 10-minute breathing treatment (1.8 L) is less than 10% of the tank size (21.5 L). The internal wall of the tank is electrically polished to minimize its adsorption of the study drug. Eight mice were mounted to the tank with four mice on each side using small animal restraints. At the start of each treatment session, an effective amount of the drug was administered into pre-cleaned tank. A stirring fan installed inside the tank was set to promote circulation of the pharmaceutical agent. Specifically, the fan was set at 400 RPM in this study and turned on before the pharmaceutical agent was administered. Thirty seconds after the last spray (t=0 minute), eight mice were mounted to the inhalation chamber to breathe the air from inside the breathing tank for 10 minutes, and then were taken off the breathing tank. Samples from the mice were taken, starting immediately after removal from the tank, to perform pharmacokinetic studies. […]

## CCN(CCO)CCCC(C)Nc1ccnc2cc(Cl)ccc12 (stereo not shown) [HCQ, hydroxychloroquine]
  appearance of mice during and after treatment: appeared healthy, with no signs of distress
